From patent US11911387B2, “Vasoprotective and cardioprotective antidiabetic therapy” (Boehringer Ingelheim International GmbH, priority 2010, dated 2024)
“Also recorded” adds a separate entry of the source. Marks after values point to notes of the source that are not given here.

How the values were obtained:
[1] = test system: diabetic eNOS ko mice; experiment: Diabetic nephropathy in STZ-diabetic eNOS ko mice, 4 weeks treatment; format: in vivo; conditions: STZ treated animals, linagliptin 3 mg/kg, telmisartan 1 mg/kg p.o.
Source text: Endothelial damage is characteristic for type 2 diabetes and contributes to the development of end stage kidney disease. Further, vascular endothelial NO synthase (eNOS) activity is altered in T2D and genetic abnormalities in the respected gene (NOS3) are associated with the development of advanced diabetic nephropathy (DN) in patients with type 1 and type 2 diabetes. The use of low dose STZ to induce T2D in this genetic phenotype (eNOS−/−) has been recently reported (Brosius et al, JASN 2009) to be a valid experimental model for DN. Eight week old eNOS −/− mice are rendered diabetic with intraperitoneal injections of streptozotocin (100 mg/kg per day for two consecutive days). Development of diabetes (defined by blood glucose>250 mg/dl) is verified one week after streptozotocin injection. No insulin is given because that could prevent the development of diabetic nephropathy. Mice are treated for 4 weeks with:
1) Non-diabetic eNOS ko control mice, placebo (natrosol) (n=14)
2) sham treated diabetic eNOS ko mice, placebo (natrosol) (n=17)
3) Telmisartan (p.o. 1 mg/kg) treated diabetic eNOS ko mice (n=17)
Renal function (s-creatinine, albuminuria) and blood glucose level are detected.

[2] = test system: 5/6N rats; experiment: Rat model of chronic renal insufficiency (5/6 nephrectomy), GLP-1 levels and cardiac mRNA; format: in vivo; conditions: for active GLP-1 AUC(0-72 h) / active GLP-1 maximum plasma concentration (Cmax): linagliptin 3.3 mg/kg oral for 4 days
Source text: At the end of the study, heart tissue is harvested for mRNA analyses.

[3] = test system: septic rats (LPS); experiment: LPS-induced septic shock in Wistar rats, linagliptin cotherapy; format: in vivo
Description: (§1) Direct vasodilatory effects of gliptins are measured by the isometric tension technique in isolated aortic ring segments. […]. In addition reactive oxygen and nitrogen species (RONS) formation is determined in isolated cardiac mitochondria and LPS or PDBu-triggered oxidative burst in whole blood. […].

[4] = test system: adhesion of human neutrophils to endothelial cells (EA.hy cells); experiment: Adhesion of LPS-stimulated human neutrophils to cultured endothelial cells; format: cell-based; conditions: in the presence of LPS
[5] = test system: NOD mice; experiment: Onset of diabetes and beta-cell mass in non-obese-diabetic (NOD) mice, 60 days; format: in vivo
Source text: Though reduced pancreatic T-cell migration and altered cytokine production is considered important players for the onset of insulinitis the exact mechanism and effects on the pancreatic cell pool is still incompletely understood.
Bi-weekly plasma samples are obtained to determine onset of diabetes (BG>11 mmol/l).

[6] = test system: isolated aortic ring segments; experiment: Direct vasodilatory effects, isometric tension recording in isolated aortic ring segments; parameters: species or system rats; conditions: cumulative concentrations 1 nM to 32 or 100 μM; versus DMSO
Description: FIGS. 9A and 9B show direct vasodilatory effects of gliptins. […] The data are mean±SEM of 12 (FIG. 9A) or 4 (FIG. 9B) aortic rings from 10 rats in total: p<0.05 vs. DMSO (solvent control); ^#p<0.05 vs. sita-/vildagliptin, and ^§, p<0.05 vs. saxa-/alogliptin.
Direct vasodilatory effects of gliptins are measured by the isometric tension technique in isolated aortic ring segments. […] In addition reactive oxygen and nitrogen species (RONS) formation is determined in isolated cardiac mitochondria and LPS or PDBu-triggered oxidative burst in whole blood.

[7] = test system: diabetic eNOS knockout C57BL/6J mice; experiment: ARB-resistant diabetic nephropathy in diabetic eNOS knockout C57BL/6J mice, 12 weeks; format: in vivo
Source text: Fourteen mice are used as non-diabetic controls. After 12 weeks, urine and blood are obtained and blood pressure measured.

[8] = test system: isolated human leukocytes (PMN); experiment: Oxidative burst (NADPH oxidase activation) in isolated human leukocytes (PMN); format: cell-based
Description: In FIG. 4, within each setting of inhibition of oxidative burst, the first bar from left refers to activation by LPS and the second bar refers to activation by Zymosan A.
In FIG. 6, within each setting of LPS stimulation, the first bar from left refers to w/o gliptin, the second bar refers to 1 μM Bl 1356, the third bar refers to 10 μM Bl 1356 and the fourth bar refers to 100 μM Bl 1356.

[9] = test system: patients with type 2 diabetes
[10] = test system: hydrogen peroxide/peroxidase system; experiment: Direct antioxidant effect: hydrogen peroxide/peroxidase mediated 1-electron-oxidation; format: biochemical
[11] = test system: peroxynitrite (authentic and Sin-1 derived); experiment: Direct antioxidant effect: peroxynitrite formation/-mediated nitration; format: biochemical
[12] = test system: nitrate tolerant rats; experiment: Rat model of nitroglycerin-induced nitrate tolerance, oral linagliptin; format: in vivo
Description: as §1

[13] = Pharmacokinetics of BI 1356, multiple oral doses once daily for 12 days in patients with type 2 diabetes; conditions: for feT, SS: steady state (Day 12); for feT, SS / fe0-24: gMean
[14] = test system: ischemia/reperfusion (I/R) rats; experiment: Myocardial ischemia/reperfusion in Wistar rats, linagliptin from 30 days before I/R; format: in vivo
[15] = test system: T2DM patients on stable metformin
[16] = test system: patients with type 2 diabetes; experiment: Postprandial glucose excursions, safety and tolerability in patients with type 2 diabetes, multiple oral doses of BI 1356
[17] = test system: rats fed a high-fat diet (diet induced obesity); experiment: Diet induced obesity rats, body weight and MRS fat analysis; conditions: rat, in vivo

CC#CCn1c(N2CCC[C@@H](N)C2)nc2c1c(=O)n(Cc1nc(C)c3ccccc3n1)c(=O)n2C [linagliptin]
blood sugar versus placebo [1]: No significant differences
active GLP-1 AUC(0-72 h) ([2]; 5/6N animals): 201 pg·h/mL
active GLP-1 maximum plasma concentration (Cmax) ([2]; 5/6N animals): 6.36 ± 2.58 pg/mL
cardiac mRNA levels of TGF-β, TIMP-1, collagens 1α1 and 3α1 and BNP ([2]; increased in 5/6N versus sham, all p<0.05): reduced or even normalized
increase of the AUC of GLP-1 ([2]; rat model of renal failure): approximately twofold
active GLP-1 AUC(0-72 h) ([2]; sham animals): 114 pg·h/mL
active GLP-1 maximum plasma concentration (Cmax) ([2]; sham animals): 3.91 ± 1.86 pg/mL
endothelial dysfunction (endothelium-dependent relaxation) ([3]; LPS treated rats): significantly improved
vascular function (Ach-, GTN-, and diethylamine NONOate-dependent relaxation) ([3]; impaired by LPS): almost normalized
mitochondrial and whole blood (LPS, PDBu-stimulated) RONS production ([3]; increased by LPS): improved
vascular oxidative stress (DHE) and markers of vascular inflammation (VCAM-1, Cox-2, NOS-2) ([3]; increased by LPS): significantly improved
increase of plasma GLP-1 levels ([3]; rat, in vivo): ~10 fold
leukocyte adhesion to endothelial cells [4]: suppresses leukocyte adhesion
incidence of diabetes at the end of the study period ([5]; diet corresponding to 3-10 mg/kg p.o., 60 days, p=0.021): 9 out of 30
active plasma GLP-1 at termination ([5]; mouse, in vivo): higher
beta cell mass ([5]; p<0.01): 0.48 ± 0.09 mg
direct vasodilatory effect (induction of vasodilation), ranking [6]: most potent compound
plasma osteopontin levels ([7]; 12 weeks): significantly lower
albuminuria (urinary albumin excretion per 24 h) ([7]; 12 weeks, telmisartan 1 mg/kg, linagliptin 3 mg/kg): 120.8±37.7 μg/24 h
glomerulosclerosis in the kidney, histological score ([7]; compared with diabetic controls, p<0.05): 2.1+/−0.0
PMN derived RONS signal, L-012 enhanced chemiluminescence ([8]; LPS 0.5, 5 and 50 μg/ml): suppresses the signal concentration-dependently
inhibition of oxidative burst ([8]; NADPH oxidase activation by LPS and zymosan A, compared with other gliptins): best inhibition
suppression of LPS or zymosan A-triggered oxidative burst, luminol/peroxidase enhanced chemiluminescence ([8]; versus nebivolol): as efficient as nebivolol
suppression of LPS or zymosan A-triggered oxidative burst, luminol/peroxidase enhanced chemiluminescence ([8]; versus other gliptins): much more efficient
Primary CV endpoint, incidence rate/1000 pt-yr ([9]; in vivo): 5.3 /1000 pt-yr
All adjudicated CV events, Hazard ratio (95% CI) ([9]; linagliptin vs comparator): 0.55 (0.33, 0.94)*
FDA-custom MACE, Hazard ratio (95% CI) ([9]; linagliptin vs comparator): 0.34 (0.15, 0.75)*
Hospitalization for UAP, Hazard ratio (95% CI) ([9]; linagliptin vs comparator): 0.24 (0.02, 2.34)
Primary CV endpoint, Hazard ratio (Cox proportional model) (95% CI) ([9]; linagliptin vs comparator): 0.34 (0.16, 0.70)*
Transient ischemic attack, Hazard ratio (95% CI) ([9]; linagliptin vs comparator): 0.17 (0.02, 1.53)
Primary CV endpoint, % ([9]; n = 3319): 0.3%
All adjudicated CV events, incidence rate/1000 pt-yr ([9]; secondary endpoint): 12.6 /1000 pt-yr
FDA-custom MACE, incidence rate/1000 pt-yr ([9]; secondary endpoint): 4.3 /1000 pt-yr
Hospitalization for UAP, incidence rate/1000 pt-yr ([9]; tertiary endpoint): 0.5 /1000 pt-yr
Non-fatal MI, incidence rate/1000 pt-yr ([9]; tertiary endpoint): 2.9 /1000 pt-yr
Non-fatal stroke, incidence rate/1000 pt-yr ([9]; tertiary endpoint): 1.0 /1000 pt-yr
Transient ischemic attack, incidence rate/1000 pt-yr ([9]; tertiary endpoint): 0.5 /1000 pt-yr
interference with 1-electron-oxidations by the hydrogen peroxide/peroxidase system [10]: most potent compound
suppression in response to peroxynitrite formation/-mediated nitration [11]: Minor (but significant) suppression
cardiac mitochondrial ROS formation and whole blood LPS/zymosan A-triggered oxidative burst ([12]; nitrate-tolerant rats): improved; also recorded: minor improvement
nitrate tolerance ([12]; nitroglycerin treated rats): not altered
endothelial dysfunction (endothelium dependent relaxation) ([12]; nitroglycerin treated rats, linagliptin 3-10 mg/kg/d by diet 7 d): significantly improved
body weight of the animals ([12]; rat, in vivo): Neither nitroglycerin nor linagliptin treatment has effects
blood glucose levels ([12]; slightly increased in the nitroglycerin group): normalized
feT, SS ([13]; 1 mg once daily oral): 3.34%
fe0-24 ([13]; 2.5 mg once daily oral): 0.139%
feT, SS ([13]; 2.5 mg once daily oral): 3.06%
fe0-24 ([13]; 5 mg once daily oral): 0.453%
feT, SS ([13]; 5 mg once daily oral): 6.27%
fe0-24 ([13]; 10 mg once daily oral): 0.919%
feT, SS ([13]; 10 mg once daily oral): 3.22%
mean accumulation ratio RA,AUC ([13]; doses above 1 mg once daily): ≤ 1.4
route of excretion ([13]; human, in vivo): primarily excreted unchanged via the bile
excreted via the kidney ([13]; therapeutic oral dose levels): < 7 % of the administered oral dose
proportion of infarcted tissue relative to the total area at risk ([14]; 3 mg/kg once daily from 30 days before I/R, p<0.001): −21%
absolute infarction size ([14]; 3 mg/kg once daily, p<0.05): −18%
isovolumetric contractility index dP/dTmin ([14]; after 60 days): −4957±73 mmHg/s
glucagon-like peptide-1 (GLP-1) levels increased ([14]; p<0.0001): 18 fold
adjusted mean HbA1c change from baseline ([15]; PP population, 2 years, linagliptin 5 mg/day, glimepiride mean dose 3 mg/day, added to metformin): −0.4%
patients with investigator-defined, drug-related hypoglycemia ([15]; human, in vivo, 2 years): 7.5%
relative risk for the combined CV endpoint (RR) ([15]; human, in vivo, 2 years): 0.50
body weight change ([15]; in vivo): -1.4 kg
body weight, adjusted mean difference ([15]; in vivo): -2.7 kg
mean between-group difference in HbA1c change ([15]; linagliptin vs glimepiride, p=0.0001 for noninferiority): 0.17%
decrease in 2 h postprandial blood glucose excursions ([16]; already on Day 1, doses ≥2.5 mg): 80%
safety and tolerability ([16]; people with type 2 diabetes): placebo-like safety and tolerability
steatosis, inflammation and fibrosis in the liver, histological scoring [17]: reduction
